≈ marks a conversion by molar mass, not a printed value. Values belong to the compound of their own block, whether it stands above or below them.
Key:
Assay type in all cases: functional
Staphylococcus aureus [1] = assay: Antibacterial activity against Staphylococcus aureus after 10 hrs by broth microdilution assay
Escherichia coli = assay: Antibacterial activity against Escherichia coli after 10 hrs by broth microdilution assay
Staphylococcus aureus [2] = assay: Antibacterial activity against methicillin resistant Staphylococcus aureus
Staphylococcus aureus [3] = assay: Antibacterial activity against methicillin resistant Staphylococcus aureus clinical isolate
Acinetobacter baumannii = assay: Antibacterial activity against Acinetobacter baumannii
Klebsiella pneumoniae = assay: Antibacterial activity against Klebsiella pneumoniae
Enterococcus faecalis = assay: Antibacterial activity against Enterococcus faecalis ATCC 29212 after 18 to 20 hrs by CLSI based direct colony suspension method
Staphylococcus aureus [4] = assay: Antibacterial activity against methicillin resistant Staphylococcus aureus DB57964/04 after 18 to 20 hrs by CLSI based direct colony suspension method
Staphylococcus aureus [5] = assay: Antibacterial activity against Staphylococcus aureus ATCC 29213 after 18 to 20 hrs by CLSI based direct colony suspension method
Staphylococcus aureus [6] = assay: Antibacterial activity against methicillin resistant Staphylococcus aureus DM09808R after 18 to 20 hrs by CLSI based direct colony suspension method
Bacillus cereus = assay: Antibacterial activity against Bacillus cereus ATCC 11778 after 18 to 20 hrs by CLSI based direct colony suspension method
Staphylococcus aureus [7] = assay: Antibacterial activity against methicillin resistant Staphylococcus aureus DM21455 after 18 to 20 hrs by CLSI based direct colony suspension method

MIC (Staphylococcus aureus [1]): 43 µM | MIC (Escherichia coli): 35 µM
Compound: CCCCCCCCCCCCNC(=O)C[N+](C)(C)C

MIC (Staphylococcus aureus [1]): 10 µM | MIC (Escherichia coli): 13 µM
Compound: CCCCCCCCCCCCNC(=O)C[N+](C)(C)CCCCCC[N+](C)(C)CC(=O)NCCCCCCCCCCCC

Compound: CCCCCCCCCCCCCC(=O)N(CCCNC(=O)[C@H](N)CCCCN)CCCNC(=O)[C@H](N)CCCCN.O=C(O)C(F)(F)F.O=C(O)C(F)(F)F.O=C(O)C(F)(F)F.O=C(O)C(F)(F)F
MIC (Staphylococcus aureus [2]): 3.1 to 6.3 µg/mL

Compound: CCCCCCN(Cc1ccc(-c2ccc(CN(CCCCCC)C(=O)[C@@H](N)CCCCN)cc2)cc1)C(=O)[C@@H](N)CCCCN.O=C(O)C(F)(F)F.O=C(O)C(F)(F)F.O=C(O)C(F)(F)F.O=C(O)C(F)(F)F
MIC (Staphylococcus aureus [2]): 3.1 µg/mL | MIC (Staphylococcus aureus [3]): 6.2 µg/mL

Compound: CCCCCCCC(=O)N(CCCNC(=O)[C@@H](CCCCN)NC(=O)[C@H](N)CCCCN)CCCNC(=O)[C@@H](CCCCN)NC(=O)[C@H](N)CCCCN.O=C(O)C(F)(F)F.O=C(O)C(F)(F)F.O=C(O)C(F)(F)F.O=C(O)C(F)(F)F.O=C(O)C(F)(F)F.O=C(O)C(F)(F)F
MIC (Acinetobacter baumannii): 6.3 to 12.5 µg/mL | MIC (Staphylococcus aureus [2]): 6.3 to 12.5 µg/mL | MIC (Klebsiella pneumoniae): 6.3 to 12.5 µg/mL

Compound: COc1c(O)cc2oc3cc(O)c(CC=C(C)C)c(O)c3c(=O)c2c1CC=C(C)C [MANGOSTIN]
MIC (Enterococcus faecalis): 0.78 to 1.56 µg/mL (≈ 1.9 to 3.8 µM) | MIC (Staphylococcus aureus [4]): 0.78 to 1.56 µg/mL (≈ 1.9 to 3.8 µM) | MIC (Staphylococcus aureus [5]): 0.78 to 1.56 µg/mL (≈ 1.9 to 3.8 µM) | MIC (Staphylococcus aureus [6]): 0.78 to 1.56 µg/mL (≈ 1.9 to 3.8 µM) | MIC (Bacillus cereus): 0.78 to 1.56 µg/mL (≈ 1.9 to 3.8 µM) | MIC (Staphylococcus aureus [7]): 0.78 to 1.56 µg/mL (≈ 1.9 to 3.8 µM)

Reference: ChEMBL document CHEMBL4402537, “Recent development of membrane-active molecules as antibacterial agents” (2019)
